ChEMBL document CHEMBL5050858, “Polyheterocyclic compounds as mettl3 inhibitors” (2021)

Molecular target: METTL3/METTL14 (Homo sapiens, UniProt Q86U44)
Assay: Inhibition of full-length His-tagged METTL3 (unknown origin) coexpressed with full-length FLAG-tagged METTL14 (unknown origin) expressed in baculovirus expression system using 5'P-uacacucgaucuggacuaaagcugcuc-3' RNA as substrate pre-incubated for 10 mins and followed by substrate addition and measured after 60 mins by methyltransferase assay

Sequence of METTL3/METTL14 (Q86U44 whole entry): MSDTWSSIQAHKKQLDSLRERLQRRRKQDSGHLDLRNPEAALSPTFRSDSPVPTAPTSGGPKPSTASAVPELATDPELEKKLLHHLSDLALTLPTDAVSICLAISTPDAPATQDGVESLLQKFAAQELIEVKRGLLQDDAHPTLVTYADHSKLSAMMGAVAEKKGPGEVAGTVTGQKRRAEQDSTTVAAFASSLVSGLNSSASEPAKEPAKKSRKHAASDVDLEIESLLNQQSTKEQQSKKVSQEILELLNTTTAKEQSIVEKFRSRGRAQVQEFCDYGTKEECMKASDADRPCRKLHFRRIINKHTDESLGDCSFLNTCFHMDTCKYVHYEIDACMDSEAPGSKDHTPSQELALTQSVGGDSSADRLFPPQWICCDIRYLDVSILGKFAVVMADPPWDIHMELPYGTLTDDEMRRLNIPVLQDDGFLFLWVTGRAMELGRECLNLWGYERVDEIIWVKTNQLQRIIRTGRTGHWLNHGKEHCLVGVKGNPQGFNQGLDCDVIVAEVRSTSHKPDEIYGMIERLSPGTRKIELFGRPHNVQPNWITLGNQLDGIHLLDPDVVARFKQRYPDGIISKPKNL
Sequence of METTL3/METTL14 (Q9HCE5 whole entry, further chain): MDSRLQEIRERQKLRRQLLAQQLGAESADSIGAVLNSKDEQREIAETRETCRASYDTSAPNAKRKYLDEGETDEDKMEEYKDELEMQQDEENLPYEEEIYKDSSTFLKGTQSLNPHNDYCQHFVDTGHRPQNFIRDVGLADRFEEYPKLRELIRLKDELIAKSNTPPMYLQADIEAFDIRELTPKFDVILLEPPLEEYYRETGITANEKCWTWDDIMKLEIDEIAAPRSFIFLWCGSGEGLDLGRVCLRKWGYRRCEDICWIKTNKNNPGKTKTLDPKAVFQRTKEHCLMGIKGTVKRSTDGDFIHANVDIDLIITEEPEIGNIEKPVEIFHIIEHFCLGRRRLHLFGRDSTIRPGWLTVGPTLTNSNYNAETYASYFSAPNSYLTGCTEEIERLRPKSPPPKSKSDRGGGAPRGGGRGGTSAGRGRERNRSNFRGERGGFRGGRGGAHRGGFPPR

SMILES: O=C(NCc1ccc2cc(CCN3CC4(CCC4)C3)[nH]c2c1)c1cc(=O)n2ccccc2n1
- IC50: 118 nM

SMILES: O=C(NCc1ccc2cc(CN3CC(C4CC4)C3)[nH]c2c1)c1cc(=O)n2ccccc2n1
- IC50: 9.24 nM
